{"source": "patent US20250346845A1", "about": "“CELL-[…]” (TOPPAN HOLDINGS INC., priority 2023, published 2025)", "assay_type_in_all_cases": "cell-based, human", "settings_in_all_cases": "drug added day 4, read day 7, general-purpose medium", "key": {"HT29 cells [1]": {"test_system": "HT29 cells", "test": "Anti-cancer drug evaluation, HT29 cells on stromal cell layer, 3D culture method, EpCAM immunofluorescence", "experimental": "2.0×10^6 NHDFs and 3.0×10^4 HUVECs were suspended in an equal volume mixture of 150 μL of 0.2 mg/mL heparin/50 mM Tris-HCl buffer (pH 7.4) and 150 μL of 0.2 mg/mL collagen/5 mM acetate solution (pH 3.7). The resulting mixture was centrifuged at 1,000×g for 1 minute at room temperature to obtain a viscous mass. The obtained viscous mass was suspended in DMEM containing 10% FBS. The entire suspension was seeded in a 24-well Transwell culture insert and centrifuged at 400×g (gravitational acceleration) at room temperature for 1 minute. As a result, a cell layer (i.e., a cell layer containing cells forming the stroma) was formed on the membrane of the Transwell culture insert.\nSubsequently, HT29 cells were seeded on the cell layer at 1×10^3 cells/well and cultured in the general-purpose medium shown in Table 4 above. On the fourth day after the start of the culture, an anti-cancer drug SN-38 (Selleck, S4908) was added to the medium in each well at a concentration of 0, 0.01, 0.1, 1 or 10 μM.\nOn the seventh day after the start of culture, the cells were fixed and stained for EpCAM with immunofluorescence staining, and the stained cells were counted as HT29 cells. More specifically, the area of fluorescence emission from cancer cells was calculated using a microscope system (Operetta CLS, PerkinElmer) in the fluorescence mode (fluorescence: Alexa 647). The cell viability was calculated using the following formula (3) to evaluate the drug efficacy."}, "HT29 cells [2]": {"test_system": "HT29 cells", "test": "Anti-cancer drug evaluation, HT29 cells, 2D culture method, ATP assay", "experimental": "(§1) On the fourth day after the start of the culture, an anti-cancer drug SN-38 (Selleck, S4908) was added to the medium in each well at a concentration of 0, 0.01, 0.1, 1 or 10 μM. On the seventh day after the start of culture, the number of HT29 cells was counted by ATP assay. The cell viability was calculated using the above formula (2) to evaluate the drug efficacy."}, "HT29 cells [3]": {"test_system": "HT29 cells", "test": "Anti-cancer drug evaluation, HT29 cells cultured using stromal stamp, ATP assay", "experimental": "HT29 (ATCC, HTB-38), a human colon adenocarcinoma cell line, was seeded in the third vessel (24-well plate) in Table 3 above at 1×10^3 cells/well. The stromal stamp prepared in Example 1 was then placed on each well.\nas §1, with “culture, the stromal stamps were removed and the number of” for “culture, the number of”, “using the following formula (2)” for “using the above formula (2)”"}}, "data": [{"smiles": "CCc1c2c(nc3ccc(O)cc13)-c1cc3c(c(=O)n1C2)COC(=O)[C@]3(O)CC", "note": "[SN-38]", "values": [{"measurement": "Cell viability (%)", "setting": "HT29 cells [1]; 0.01 μM", "value": "97.8 ± 20.04", "unit": "%"}, {"measurement": "Cell viability (%)", "setting": "HT29 cells [1]; 0.1 μM", "value": "72.87 ± 14.57", "unit": "%"}, {"measurement": "Cell viability (%)", "setting": "HT29 cells [1]; 1 μM", "value": "54.21 ± 13.05", "unit": "%"}, {"measurement": "Cell viability (%)", "setting": "HT29 cells [1]; 10 μM", "value": "34.2 ± 9.47", "unit": "%"}, {"measurement": "Cell viability (%)", "setting": "HT29 cells [2]; 0.01 μM", "value": "78.3 ± 9.45", "unit": "%"}, {"measurement": "Cell viability (%)", "setting": "HT29 cells [2]; 0.1 μM", "value": "54.3 ± 5.45", "unit": "%"}, {"measurement": "Cell viability (%)", "setting": "HT29 cells [2]; 1 μM", "value": "35 ± 3.24", "unit": "%"}, {"measurement": "Cell viability (%)", "setting": "HT29 cells [2]; 10 μM", "value": "21.3 ± 4.23", "unit": "%"}, {"measurement": "Cell viability (%)", "setting": "HT29 cells [3]; 0.01 μM", "value": "103.3 ± 14.5", "unit": "%"}, {"measurement": "Cell viability (%)", "setting": "HT29 cells [3]; 0.1 μM", "value": "72.87 ± 14.57", "unit": "%"}, {"measurement": "Cell viability (%)", "setting": "HT29 cells [3]; 1 μM", "value": "49.3 ± 13.05", "unit": "%"}, {"measurement": "Cell viability (%)", "setting": "HT29 cells [3]; 10 μM", "value": "36.5 ± 10.24", "unit": "%"}]}]}
